Assay: Tensile load required to break hair fibers (break load)
Experimental: A commercial rinse-off conditioner formulation was used as a control vehicle for the study. An active formulation was prepared by adding 1% (w/w) of TDPA to the control vehicle. Three samples of treated hair were prepared: untreated, treatment with the control vehicle, and treatment with the control vehicle plus 1% TDPA. The treatments were applied to hair tresses that had been previously damaged by artificially color with an oxidative dye. The treatments were repeated five times. The overall condition of the hair fibers was determined by measuring the tensile load required to break the fibers and the results of 30 fibers were averaged. […] In stark contrast, the active formula, having 1% TDPA, gave a break load of about 82 gm. This correlates to an improvement in the tensile strength of about 20%. The formulas used in the testing protocol were as follows: […]

O=C(O)CCSCCC(=O)O [TDPA, 3,3′-thiodipropionic acid]
improvement in the tensile strength (active formula with 1% TDPA (about 82 gm), untreated hair about 68 gm, control vehicle about 73 gm): about 20% | break load (tensile load required to break the fibers) (active formula: commercial rinse-off conditioner control vehicle plus 1% (w/w) TDPA, treatments repeated five times, results of 30 fibers averaged, FIG. 1): about 82 gm

From patent publication US10874598B2, “Compositions and methods for treating damaged hair” (AVON PRODUCTS, INC., priority 2013, dated 2020)
